In one experiment the test system is Sprague-Dawley rats. The experiment can be described thus: Assay (XI) single subcutaneous administration, food intake monitored for 48 hours in rats. It is filed as in vivo, rat. The conditions noted are these: single subcutaneous 30 nmol/kg. As to the method:
Assay (XI)—Effect from Single Subcutaneous Administration of Analogue on […] in Rats
Male Sprague-Dawley rats (Taconic Europe, ˜250 g at test date) were acclimatized to reversed day light cycle (lights on from 10 PM to 10 AM) and single housing in online food intake monitoring system (Ellegaard MBRose, Denmark) prior to study start. Rats were divided in groups of five and subcutaneously dosed with test compound (30 nmol/kg) and food intake was monitored for 48 hours hereafter. Data are illustrated in graphs as mean±SEM.

A further experiment deals with Wistar rats. The experiment can be described thus: Assay (XII) single subcutaneous administration, plasma calcium in rats. Particulars: for Plasma calcium red (%) 0-12 h: single s.c., maximal reduction 0-12 h, compared to vehicle; for suppression of plasma calcium level relative to vehicle: single subcutaneous, over 24 hours. The experiment is classed as in vivo, rat. The procedure:
Assay (XII)—Effect from Single Subcutaneous Administration of Analogue on Plasma Calcium in Rats
Male Wistar rats (Taconic Europe, ˜250 g at test date) were acclimatized to handling prior to the study. Rats were divided in groups of five and subcutaneously dosed with test compound at time=0. At time T=−15 min; 1 h, 2 h, 4 h, 7 h, 12 h, and 24 h a blood sample was obtained and heparin stabilized plasma was analysed for total calcium (Cobas, Hitachi). Data are illustrated in graphs as mean±SEM.

Experiment [1] deals with T1, human amylin receptor (amylin 3(a) receptor: human calcitonin receptor + RAMP-3) (Homo sapiens, UniProt O60896+P30988).
T1 construct: expressed in transfected cells
T1 sequence (P30988 25-474): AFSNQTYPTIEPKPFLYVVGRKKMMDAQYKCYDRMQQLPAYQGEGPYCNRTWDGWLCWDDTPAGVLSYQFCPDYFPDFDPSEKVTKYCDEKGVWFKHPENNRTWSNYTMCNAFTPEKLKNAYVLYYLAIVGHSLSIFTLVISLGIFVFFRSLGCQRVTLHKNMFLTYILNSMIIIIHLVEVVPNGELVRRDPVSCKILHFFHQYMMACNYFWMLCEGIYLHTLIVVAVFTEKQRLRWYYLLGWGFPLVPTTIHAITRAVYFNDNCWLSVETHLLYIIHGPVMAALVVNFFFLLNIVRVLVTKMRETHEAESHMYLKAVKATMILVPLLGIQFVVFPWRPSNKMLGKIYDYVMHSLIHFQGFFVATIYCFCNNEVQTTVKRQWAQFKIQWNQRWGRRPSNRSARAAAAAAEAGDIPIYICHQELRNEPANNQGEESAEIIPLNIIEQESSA
T1 sequence (O60896 24-148 partner): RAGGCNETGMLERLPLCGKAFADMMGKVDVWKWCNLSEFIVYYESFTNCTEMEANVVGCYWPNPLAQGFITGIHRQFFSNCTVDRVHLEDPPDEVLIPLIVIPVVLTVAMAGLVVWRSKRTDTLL
Briefly: Assay (II)a functional assay, human amylin receptor (CRE luciferase, BHK cells). The experiment is classed as cell-based. The conditions noted are these: functional assay, human amylin receptor; read-out: hAmylin-R funct. EC50.
Protocol: Assay (II)—Functional Assays
Consequently, transcription is activated by promoters containing multiple copies of the cAMP response element (CRE).
The cell line was further transfected with RAMP-3, using standard methods.
After incubation overnight at 37° C. and 5% CO2, the growth medium was replaced by 50 μl/well assay medium (DMEM (without phenol red), Glutamax™, 10% FBS, and 10 mM Hepes, pH 7.4). Further, 50 μl/well of standard or sample in assay buffer were added. After 3 hours incubation at 37° C. and 5% CO2, the assay medium with standard or sample were removed and replaced by 100 μl/well PBS. Further, 100 μl/well LucLite™ was added. The plates were sealed and incubated at room temperature for 30 minutes. Finally, luminescence was measured on a TopCounter (Packard) in SPC (single photon counting) mode.

For experiment [2], the target named is T2, human calcitonin receptor (Homo sapiens, UniProt P30988).
T2 construct: expressed in transfected cells
T2 sequence (P30988 25-474): T1 sequence (P30988 25-474)
The experiment can be described thus: Assay (II)a functional assay, human calcitonin receptor (CRE luciferase, BHK cells).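 Note: luminescence from a CRE-driven luciferase reporter, read by single photon counting after cells were exposed to test samples for 3 h at 37 °C under 5% CO2.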 The experiment is classed as cell-based. The conditions noted are these: read-out: hCTR funct. EC50.

In a further experiment the target is T3, human amylin receptor (Homo sapiens, UniProt O60896+P30988).
T3 construct: expressed in transfected cells
T3 sequence (P30988 25-474): T1 sequence (P30988 25-474)
T3 sequence (O60896 24-148 partner): T1 sequence (O60896 24-148 partner)
Briefly: Assay (V) binding to the human amylin receptor (SPA, 125I-rat amylin). The conditions noted are these: human amylin receptor membranes, SPA; read-out: hAmylin-R bind IC50. The essentials: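 SPA competition binding on membranes from Amylin 3(a)/CRE-luc cells, 35 ng/μL membranes with 0.05 mg/well beads. Buffer 50 mM Hepes pH 7.4, 1 mM CaCl2, 5 mM MgCl2, 0.1% OA, 0.02% Tween20. IC50 from one-site competition fit as affinity measure.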

The target in a further experiment is T4, rat amylin receptor (Rattus norvegicus, UniProt P32214+Q9JJ73).
T4 construct: expressed in transfected cells; host or cells: BHK tk'ts 13 (transient, FuGENE 6), membranes
T4 sequence (P32214 25-479 isoform P32214-2 limits assumed): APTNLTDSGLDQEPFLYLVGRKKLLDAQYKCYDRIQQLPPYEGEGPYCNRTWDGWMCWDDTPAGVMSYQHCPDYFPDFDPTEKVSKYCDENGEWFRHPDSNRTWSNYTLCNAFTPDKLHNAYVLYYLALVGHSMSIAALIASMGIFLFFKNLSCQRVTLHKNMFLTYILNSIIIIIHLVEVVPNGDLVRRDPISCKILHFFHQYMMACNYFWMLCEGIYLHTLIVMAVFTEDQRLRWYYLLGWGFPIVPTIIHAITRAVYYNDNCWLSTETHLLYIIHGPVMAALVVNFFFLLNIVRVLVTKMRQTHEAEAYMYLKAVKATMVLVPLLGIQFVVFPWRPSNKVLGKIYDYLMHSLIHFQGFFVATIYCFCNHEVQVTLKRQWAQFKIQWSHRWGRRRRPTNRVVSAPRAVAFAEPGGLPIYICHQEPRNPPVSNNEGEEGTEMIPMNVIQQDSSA
T4 sequence (Q9JJ73 23-147 partner): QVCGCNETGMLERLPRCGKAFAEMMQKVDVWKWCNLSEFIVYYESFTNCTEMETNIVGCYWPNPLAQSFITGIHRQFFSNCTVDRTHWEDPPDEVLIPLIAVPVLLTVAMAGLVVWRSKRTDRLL
Briefly: Assay (VI) binding to the rat amylin receptor. The conditions noted are these: rCTR bind IC50 divided by rAmylin-R bind IC50. The essentials: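 Binding as in the human amylin receptor binding assay, but with membranes from BHK tk'ts 13 cells transiently co-transfected with rat calcitonin receptor and rat RAMP 3 […]. Membranes were prepared from cells harvested about 48 hours after transfection.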

Experiment [3] addresses T2, human calcitonin receptor. Briefly: Assay (VII) binding to the human calcitonin receptor (SPA, 125I-Calcitonin).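 Note: cell membranes coupled to SPA beads, competitive displacement read by scintillation counting, IC50 derived from a one-site competition fit as a measure of receptor affinity.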 The conditions noted are these: read-out: hCTR bind IC50.

What is called EC50 is the concentration at which the effect is half-maximal. One may read the IC50 as the point on the concentration scale where inhibition reaches its midpoint.

“Also recorded” adds a separate entry of the source. Numbered stars: 1 amine (or outer) side, 2 acyl side, 3 side chain; on linkers, the order of the positions; unused ones are H or OH. Bridge positions count the residues as written; N and C are the ends. Side chains are listed from the residue outwards. Peptide text beside a SMILES is read from it. * marks the point of attachment. C20 diacid = O=C(O)CCCCCCCCCCCCCCCCCCC(=O)*; γGlu = O=C(O)[C@H](CCC(=O)[*:2])N[*:1]

Regarding `CC[C@H](C)[C@H](NC(=O)[C@H](C)NC(=O)CNC(=O)[C@H](Cc1ccccc1)NC(=O)[C@H](CC(N)=O)NC(=O)[C@@H]1CCCN1C(=O)[C@H](CO)NC(=O)[C@H](CO)NC(=O)[C@H](Cc1c[nH]cn1)NC(=O)[C@H](CCCNC(=N)N)NC(=O)[C@H](CC(C)C)NC(=O)[C@H](Cc1ccccc1)NC(=O)[C@H](CC(N)=O)NC(=O)[C@H](C)NC(=O)[C@H](CC(C)C)NC(=O)[C@H](CCCNC(=N)N)NC(=O)[C@H](CCC(N)=O)NC(=O)[C@@H](NC(=O)[C@H](C)NC(=O)[C@@H]1CSSC[C@H](NC(=O)[C@@H](N)CCCCNC(=O)CC[C@H](NC(=O)CC[C@H](NC(=O)CCCCCCCCCCCCCCCCCCC(=O)O)C(=O)O)C(=O)O)C(=O)N[C@@H](CC(N)=O)C(=O)N[C@@H]([C@@H](C)O)C(=O)N[C@@H](C)C(=O)N[C@@H]([C@@H](C)O)C(=O)N1)[C@@H](C)O)C(=O)N1CCC[C@H]1C(=O)N[C@@H](CO)C(=O)N[C@@H](CO)C(=O)N[C@H](C(=O)N[C@@H](CC(N)=O)C(=O)N[C@H](C(=O)NCC(=O)N[C@@H](Cc1c[nH]cn1)C(=O)N[C@@H](CC(N)=O)C(=O)N[C@H](C(=O)N[C@@H](Cc1ccc(O)cc1)C(N)=O)[C@@H](C)O)C(C)C)[C@@H](C)O` [Example 86] (H-K([γGlu-γGlu-C20 diacid])CNTATCATQRLANFLRHSSPNFGAIPSSTNVGHNTY-NH2; disulfide 2-7 (inferred); N-terminus and C-terminus assumed), in the experiment with Sprague-Dawley rats, the “food intake monitored over 48 hours versus vehicle” value was “reduces food intake in rats”. For the same compound, the “Plasma calcium red (%) 0-12 h” value in the experiment with Wistar rats (30 nmol/kg) stood at 0%. Moreover, the “suppression of plasma calcium level relative to vehicle” value in the experiment on Wistar rats (increasing doses (all doses tested)) is given as “None of the doses trigger a notable suppression of the calcium level”.
As for `CC[C@H](C)[C@H](NC(=O)[C@H](C)NC(=O)CNC(=O)[C@H](Cc1ccccc1)NC(=O)[C@H](CC(N)=O)NC(=O)[C@@H]1CCCN1C(=O)[C@H](CO)NC(=O)[C@H](CO)NC(=O)[C@H](Cc1c[nH]cn1)NC(=O)[C@H](CCCNC(=N)N)NC(=O)[C@H](CC(C)C)NC(=O)[C@H](Cc1ccccc1)NC(=O)[C@H](CCC(=O)O)NC(=O)[C@H](C)NC(=O)[C@H](CC(C)C)NC(=O)[C@H](CCCNC(=N)N)NC(=O)[C@H](CCC(N)=O)NC(=O)[C@@H](NC(=O)[C@H](C)NC(=O)[C@@H]1CSSC[C@H](NC(=O)[C@@H](N)CCCCNC(=O)CC[C@H](NC(=O)CC[C@H](NC(=O)CCCCCCCCCCCCCCCCCCC(=O)O)C(=O)O)C(=O)O)C(=O)N[C@@H](CC(N)=O)C(=O)N[C@@H]([C@@H](C)O)C(=O)N[C@@H](C)C(=O)N[C@@H]([C@@H](C)O)C(=O)N1)[C@@H](C)O)C(=O)N1CCC[C@H]1C(=O)N[C@@H](CO)C(=O)N[C@@H](CO)C(=O)N[C@H](C(=O)N[C@@H](CC(N)=O)C(=O)N[C@H](C(=O)NCC(=O)N1CCC[C@H]1C(=O)N[C@@H](CCCNC(=N)N)C(=O)N[C@H](C(=O)N[C@@H](Cc1ccc(O)cc1)C(N)=O)[C@@H](C)O)C(C)C)[C@@H](C)O` [Example 110] (H-K([γGlu-γGlu-C20 diacid])CNTATCATQRLAEFLRHSSPNFGAIPSSTNVGPRTY-NH2; disulfide 2-7), the “food intake monitored over 48 hours versus vehicle” value in the experiment on Sprague-Dawley rats was “reduces food intake in rats”. Further, in the experiment with Wistar rats (30 nmol/kg), the “Plasma calcium red (%) 0-12 h” value turned out to be 8% and the “suppression of plasma calcium level relative to vehicle” value was “None of the example compounds at 30 nmol/kg trigger a notable suppression of the calcium level”.
Regarding `CC[C@H](C)[C@H](NC(=O)[C@H](C)NC(=O)CNC(=O)[C@H](Cc1ccccc1)NC(=O)[C@H](CC(N)=O)NC(=O)[C@@H]1CCCN1C(=O)[C@H](CO)NC(=O)[C@H](CO)NC(=O)[C@H](Cc1c[nH]cn1)NC(=O)[C@H](CCCNC(=N)N)NC(=O)[C@H](CC(C)C)NC(=O)[C@H](Cc1ccccc1)NC(=O)[C@H](CCC(=O)O)NC(=O)[C@H](C)NC(=O)[C@H](CC(C)C)NC(=O)[C@H](CCCNC(=N)N)NC(=O)[C@H](CCC(N)=O)NC(=O)[C@@H](NC(=O)[C@H](C)NC(=O)[C@@H]1CSSC[C@H](NC(=O)[C@@H](N)CCCCNC(=O)CC[C@H](NC(=O)CC[C@H](NC(=O)CCCCCCCCCCCCCCCCCCC(=O)O)C(=O)O)C(=O)O)C(=O)N[C@@H](CC(N)=O)C(=O)N[C@@H]([C@@H](C)O)C(=O)N[C@@H](C)C(=O)N[C@@H]([C@@H](C)O)C(=O)N1)[C@@H](C)O)C(=O)N1CCC[C@H]1C(=O)N[C@@H](CO)C(=O)N[C@@H](CO)C(=O)N[C@H](C(=O)N[C@@H](CC(N)=O)C(=O)N[C@H](C(=O)NCC(=O)N1CCC[C@H]1C(=O)N[C@@H](Cc1c[nH]cn1)C(=O)N[C@H](C(=O)N[C@@H](Cc1ccc(O)cc1)C(N)=O)[C@@H](C)O)C(C)C)[C@@H](C)O` [Example 124] (H-K([γGlu-γGlu-C20 diacid])CNTATCATQRLAEFLRHSSPNFGAIPSSTNVGPHTY-NH2; disulfide 2-7), the EC50 worked out at 0.172 nM in experiment [1] and 2.83 nM in experiment [2]. Further, the IC50 on human amylin receptor was determined as 0.377 nM; in experiment [3] it was 10.3 nM. Besides, the “Ratio rCT/rAmylin binding” value on rat amylin receptor (Table 7b), on rat amylin receptor (Table 7c) and at rat amylin receptor was 73.0 throughout. Also, the “Plasma calcium red (%) 0-12 h” value in the experiment with Wistar rats (10 nmol/kg) was 3%; in the experiment on Wistar rats (30 nmol/kg) it was 11%.
For the compound `CC(C)C[C@H](NC(=O)[C@H](CCCCN)NC(=O)CNC(=O)[C@H](CC(C)C)NC(=O)[C@@H](NC(=O)[C@@H]1CSSC[C@H](N)C(=O)N[C@@H](CO)C(=O)N[C@@H](CC(N)=O)C(=O)N[C@@H](CC(C)C)C(=O)N[C@@H](CO)C(=O)N[C@@H]([C@@H](C)O)C(=O)N1)C(C)C)C(=O)N[C@@H](CO)C(=O)N[C@@H](CCC(N)=O)C(=O)N[C@@H](CCC(=O)O)C(=O)N[C@@H](CC(C)C)C(=O)N[C@@H](Cc1c[nH]cn1)C(=O)N[C@@H](CCCCN)C(=O)N[C@@H](CC(C)C)C(=O)N[C@@H](CCC(N)=O)C(=O)N[C@H](C(=O)N[C@@H](Cc1ccc(O)cc1)C(=O)N1CCC[C@H]1C(=O)N[C@@H](CCCNC(=N)N)C(=O)N[C@H](C(=O)N[C@@H](CC(N)=O)C(=O)N[C@H](C(=O)NCC(=O)N[C@@H](CO)C(=O)NCC(=O)N[C@H](C(=O)N1CCC[C@H]1C(N)=O)[C@@H](C)O)[C@@H](C)O)[C@@H](C)O)[C@@H](C)O` [salmon calcitonin, reference compound], the “food intake monitored over 48 hours versus vehicle” value in the experiment on Sprague-Dawley rats is “reduction of food intake; also recorded: reduces food intake in rats”. Also, the “Plasma calcium red (%) 0-12 h” value with Wistar rats (3 nmol/kg) is recorded as 35%; in the experiment with Wistar rats (30 nmol/kg), 39%.

Values taken from patent US8575091B1, “Amylin analogues and pharmaceutical compositions thereof” (Novo Nordisk A/S, priority 2012, dated 2013).
